Laboratory results published in ChEMBL document CHEMBL1909046, “DrugMatrix in vitro pharmacology data”.

What was measured:
[1] = DRUGMATRIX: Calcium Channel Type L, Dihydropyridine radioligand binding (ligand: [3H] Nitrendipine); format: cell membranes, Rattus norvegicus, Wistar, Cerebral cortex, Membrane; conditions: Not Active = under 50% inhibition at 10 µM
[2] = biological target: 5-hydroxytryptamine receptor 6 (Homo sapiens, UniProt P50406); format: cell membranes, HeLa, Membrane; conditions: hela; further: in other assays of this panel Not Active means under 50% inhibition at 10 µM
[3] = DRUGMATRIX: Sigma2 radioligand binding (ligand: [3H] Ifenprodil); format: cell membranes, Rattus norvegicus, Wistar, Brain, Membrane; conditions: Not Active = under 50% inhibition at 10 µM
[4] = DRUGMATRIX: Potassium Channel [KATP] radioligand binding (ligand: [3H] Glyburide); format: cell membranes, Membrane; conditions: hit-t15; Not Active = under 50% inhibition at 10 µM
[5] = biological target: Protein kinase C alpha type (Homo sapiens, UniProt P17252); format: cell-based; conditions: sf9;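 further: inhibition of PKCalpha kinase activity measured in an enzyme assay with histone as the phosphorylation substrate; in other assays of this panel Not Active means under 50% inhibition at 10 µM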

Chain of 5-hydroxytryptamine receptor 6 (P50406 whole entry): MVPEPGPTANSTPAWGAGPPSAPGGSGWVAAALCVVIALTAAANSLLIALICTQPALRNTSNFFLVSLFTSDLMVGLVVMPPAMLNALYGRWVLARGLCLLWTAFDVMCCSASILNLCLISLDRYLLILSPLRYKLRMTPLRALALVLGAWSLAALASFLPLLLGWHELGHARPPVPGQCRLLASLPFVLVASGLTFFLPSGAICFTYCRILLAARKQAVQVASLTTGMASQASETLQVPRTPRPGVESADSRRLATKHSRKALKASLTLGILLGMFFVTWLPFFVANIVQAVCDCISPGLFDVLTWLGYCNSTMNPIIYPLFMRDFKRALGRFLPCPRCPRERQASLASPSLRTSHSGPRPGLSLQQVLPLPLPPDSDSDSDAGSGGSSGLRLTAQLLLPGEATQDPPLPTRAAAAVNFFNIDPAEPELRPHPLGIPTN

Nn1nnc2ccccc21
Not Active: IC50 [1] | Ki [1] | IC50 [2] | IC50 [3] | Ki [3] | IC50 [4] | Ki [4] | IC50 [5]

CC[C@]1(O)CC[C@H]2[C@@H]3CCC4=CCCC[C@@H]4[C@H]3CC[C@@]21C
Not Active: IC50 [1] | Ki [1] | IC50 [2] | IC50 [3] | Ki [3] | IC50 [4] | Ki [4] | IC50 [5]

N[C@@H](Cc1ccc(F)cc1)C(=O)O
Not Active: IC50 [1] | Ki [1] | IC50 [2] | IC50 [3] | Ki [3] | IC50 [4] | Ki [4] | IC50 [5]

CCOC(=O)[C@H](CCc1ccccc1)N[C@@H](C)C(=O)N1Cc2ccccc2C[C@H]1C(=O)O
Not Active: IC50 [1] | Ki [1] | IC50 [2] | IC50 [3] | Ki [3] | IC50 [4] | Ki [4] | IC50 [5]

O=C(c1ccccc1Cl)N1CCC(Cc2ccccc2)CC1
Not Active: IC50 [1] | Ki [1] | IC50 [2] | IC50 [3] | Ki [3] | IC50 [4] | Ki [4] | IC50 [5]

CCOC(=O)[C@H](CCc1ccccc1)N[C@@H](C)C(=O)N1CCC[C@H]1C(=O)O
Not Active: IC50 [1] | Ki [1] | IC50 [2] | IC50 [3] | Ki [3] | IC50 [4] | Ki [4] | IC50 [5]

Clc1cc2c(cc1Cl)Oc1cc(Cl)c(Cl)cc1O2 [2,3,7,8-TETRACHLORODIBENZO-P-DIOXIN]
Not Active: IC50 [1] | Ki [1] | IC50 [2] | IC50 [3] | Ki [3] | IC50 [4] | Ki [4] | IC50 [5]

C=C1/C(=C\C=C2/CCC[C@]3(C)[C@@H]([C@H](C)CCCC(C)C)CC[C@@H]23)C[C@@H](O)C[C@@H]1O [ALFACALCIDOL]
Not Active: IC50 [1] | Ki [1] | IC50 [2] | IC50 [3] | Ki [3] | IC50 [4] | Ki [4] | IC50 [5]

CCCCCC[C@H]1C(=O)O[C@H](C)[C@H](NC(=O)c2cccc(NC=O)c2O)C(=O)O[C@@H](C)[C@@H]1OC(=O)CC(C)C [ANTIMYCIN A]
Not Active: IC50 [1] | Ki [1] | IC50 [2] | IC50 [3] | Ki [3] | IC50 [4] | Ki [4] | IC50 [5]

C[C@@H]1CC[C@H]2[C@@H](C)C(=O)O[C@@H]3O[C@@]4(C)CC[C@@H]1[C@]32OO4 [ARTEMISININ]
Not Active: IC50 [1] | Ki [1] | IC50 [2] | IC50 [3] | Ki [3] | IC50 [4] | Ki [4] | IC50 [5]

CO[C@H]1[C@@H](O)[C@H](N)[C@@H](O[C@H]2O[C@H]([C@H](C)N)CC[C@H]2N)[C@H](O)[C@@H]1N(C)C(=O)CN [ASTROMICIN]
Not Active: IC50 [1] | Ki [1] | IC50 [2] | IC50 [3] | Ki [3] | IC50 [4] | Ki [4] | IC50 [5]

[N-]=[N+]=CC(=O)OC[C@H](N)C(=O)O [AZASERINE]
Not Active: IC50 [1] | Ki [1] | IC50 [2] | IC50 [3] | Ki [3] | IC50 [4] | Ki [4] | IC50 [5]

CC[C@H](C)C(=O)O[C@H]1C[C@@H](C)C=C2C=C[C@H](C)[C@H](CC[C@@H]3C[C@@H](O)CC(=O)O3)[C@H]21 [LOVASTATIN]
Not Active: IC50 [1] | Ki [1] | IC50 [2] | IC50 [3] | Ki [3] | IC50 [5]
